Results reported in US12594267B2, “Capsid inhibitors for the treatment of HIV” (Gilead Sciences, Inc., priority 2018, dated 2026).
Like-named read-outs stand apart in the source and are kept apart here.

Test: PK after subcutaneous administration of solutions in dogs
Type: in vivo, Beagle dog
Settings: dog, plasma, sc, dog, mean ± SD, n=3; for concentration at 56 d: read-out: C56d
Procedure: Formulations containing the compound of Formula (Ia) were prepared as aqueous solutions or oral formulations and administered subcutaneously to rats, dogs, cynomolgus monkey, and/or rhesus monkey.
A solution of the compound of Formula (Ia) in 10% ethanol, 13% water, and 77% PEG 200 (400 mg/mL) was prepared. The solution was administered subcutaneously to dogs at a dose of 12 mg/kg and rats at a dose of 50 mg/kg and the pharmacokinetic (PK) profile was determined. […] In both species, plasma concentrations of the compound of Formula (Ia) were maintained above the target trough concentration of 20 nM (corresponding to an IQ of 5) for at least 84 days (12 weeks).
A solution of the compound of Formula (Ia) in 15% water and 85.0 PEG 300 (400 mg/mL) was prepared. The solution was administered subcutaneously to male beagle dogs at a dose level of 12 mg/kg and dose volume of […] and the pharmacokinetic (PK) profile was determined.
A solution of the compound of Formula (a) sodium salt in water and 300 (300 mg/mL) was prepared that contained 22.6% water/50% PEG 300/1.1% NaOH/26.3% Formula (Ia). The solution was administered subcutaneously to male beagle dogs at a dose level of 12 mg/kg and dose volume of […] and the pharmacokinetic (PK) profile was determined.
A 300 mg/ml solution of a compound of Formula (Ia) having 9.8 w/w % water, 65.0 w/w % PEG 300, and 25.2 w/w % of the compound of Formula (Ia) was prepared. The solution was administered subcutaneously to rats at a dose of 50 mg/kg and to dogs at a dose of 12 mg/kg and the pharmacokinetic (PK) profile was determined. […] In the rat, plasma concentrations of the compound of Formula (Ia) were maintained above the target trough concentration of 20 nM for at least 168 days (24 weeks). In the dog, plasma concentrations of the compound of Formula (Ia) were maintained above the target trough concentration of 20 nM for at least 84 days (12 weeks).
(§1) A 150 mg/ml solution of a compound of Formula (Ia) having 27.92 w/w % water, 58.04 w/w % PEG 300, 13.47 w/w % of a compound of Formula (Ia), and 1.1 w/w % NaOH was prepared. The solution was administered subcutaneously to rats at a dose of 50 mg/kg and to dogs at a dose of 12 mg/kg and the pharmacokinetic (PK) profile was determined. […] In the rat, plasma concentrations of the compound of Formula (Ia) were maintained above the target trough concentration of 20 nM for at least 126 days (18 weeks). In the dog, plasma concentrations of the compound of Formula (Ia) were maintained above the target trough concentration of 20 nM for at least 56 days (8 weeks).
as §1, with “300” for “150”, “23.2” for “27.92”, “50.0” for “58.04”, “25.7” for “13.47”
A 50 mg/ml solution of a compound of Formula (Ia) having 30.07 w/w % water, 64.40 w/w % PEG 300, 4.68 w/w % of a sodium salt of the compound of Formula (Ia), and 0.85 w/w % poloxamer 188 was prepared. The solution was administered subcutaneously to rats at a dose of 50 mg/kg and to dogs at a dose of 6 mg/kg and the pharmacokinetic (PK) profile was determined. […] In the rat, plasma concentrations of the compound of Formula (Ia) were maintained above the target trough concentration of 20 nM for at least 28 days (4 weeks). In the dog, plasma concentrations of the compound of Formula (Ia) were maintained above the target trough concentration of 20 nM for at least 14 days (2 weeks). […]

[1] = Beagle, 6 mg/kg, SC 6 mg/kg, 150 mg/mL solution (w/w %: 26.6 water, 56.97 PEG 300, 13.39 Formula (Ia), 0.57 NaOH, 2.49 poloxamer 188)
[2] = beagle, 6 mg/kg, SC 6 mg/kg, 300 mg/mL solution (w/w %: 21.97 water, 47.05 PEG 300, 25.21 Formula (Ia), 1.08 NaOH, 4.69 poloxamer 188)
[3] = beagle, 12 mg/kg, SC 12 mg/kg, 150 mg/mL solution (w/w %: 27.92 water, 58.04 PEG 300, 13.47 Formula (Ia), 1.1 NaOH)
[4] = beagle, 12 mg/kg, SC 12 mg/kg, 300 mg/mL solution (w/w %: 9.8 water, 65.0 PEG 300, 25.2 Formula (Ia))
[5] = beagle, 12 mg/kg, SC 12 mg/kg, 300 mg/mL solution (w/w %: 23.2 water, 50.0 PEG 300, 25.7 Formula (Ia), 1.1 NaOH)

CC(C)(C#Cc1ccc(-c2ccc(Cl)c3c(NS(C)(=O)=O)nn(CC(F)(F)F)c23)c([C@H](Cc2cc(F)cc(F)c2)NC(=O)Cn2nc(C(F)(F)F)c3c2C(F)(F)[C@@H]2C[C@H]32)n1)S(C)(=O)=O [Formula (Ia), N—((S)-1-(3-(4-chloro-3-(methylsulfonamido)-1-(2,2,2-trifluoroethyl)-1H-indazol-7-yl)-6-(3-methyl-3-(methylsulfonyl)but-1-yn-1-yl)pyridin-2-yl)-2-(3,5-difluorophenyl)ethyl)-2-((3bS,4aR)-5,5-difluoro-3-(trifluoromethyl)-3b,4,4a,5-tetrahydro-1H-cyclopropa[3,4]cyclopenta[1,2-c]pyrazol-1-yl)acetamide]
AUC(0-t) (Beagle, 6 mg/kg, SC 6 mg/kg, 100 mg/mL solution (w/w %: 28.36 water, 60.73 PEG 300, 9.23 sodium salt of Formula (Ia), 1.68 poloxamer 188), read-out: AUC0-24h): 6.05 ± 3.43 µM·h | AUC(0-t) (Beagle, 6 mg/kg, SC 6 mg/kg, 125 mg/mL solution (w/w %: 27.51 water, 58.92 PEG 300, 11.48 sodium salt of Formula (Ia), 2.09 poloxamer 188), read-out: AUC0-24h): 4.71 ± 1.51 µM·h | AUC(0-t) (Beagle, 6 mg/kg, SC 6 mg/kg, 125 mg/mL solution (w/w %: 27.51 water, 58.92 PEG 300, 11.48 sodium salt of Formula (Ia), 2.09 poloxamer 188), read-out: AUC0-14d): 90.3 ± 3.5 µM·h | Cmax [1]: 101 ± 44 nM | Tmax [1]: 10 ± 15.6 days | AUC(0-t) (Beagle, 6 mg/kg, SC 6 mg/kg, 150 mg/mL solution (w/w %: 26.6 water, 56.97 PEG 300, 13.39 Formula (Ia), 0.57 NaOH, 2.49 poloxamer 188), read-out: AUC0-56d): 69 ± 13.9 µM·h | AUC(0-t) (Beagle, 6 mg/kg, SC 6 mg/kg, 150 mg/mL solution (w/w %: 26.6 water, 56.97 PEG 300, 13.39 Formula (Ia), 0.57 NaOH, 2.49 poloxamer 188), read-out: AUC0-84d): 76.6 ± 8.5 µM·h | concentration at 56 d [1]: 24.9 nM | AUC(0-t) (beagle, 6 mg/kg, SC 6 mg/kg, 50 mg/mL solution (w/w %: 30.07 water, 64.40 PEG 300, 4.68 sodium salt of Formula (Ia), 0.85 poloxamer 188), read-out: AUC0-24h): 14.7 ± 4.4 µM·h | concentration at 14 d (beagle, 6 mg/kg, SC 6 mg/kg, 50 mg/mL solution (w/w %: 30.07 water, 64.40 PEG 300, 4.68 sodium salt of Formula (Ia), 0.85 poloxamer 188), read-out: C14d): 37.2 ± 13.9 nM | AUC(0-t) (beagle, 6 mg/kg, SC 6 mg/kg, 75 mg/mL solution (w/w %: 29.21 water, 62.55 PEG 300, 6.97 sodium salt of Formula (Ia), 1.68 poloxamer 188), read-out: AUC0-24h): 5.88 ± 1.95 µM·h | AUC(0-t) (beagle, 6 mg/kg, SC 6 mg/kg, 75 mg/mL solution (w/w %: 29.21 water, 62.55 PEG 300, 6.97 sodium salt of Formula (Ia), 1.68 poloxamer 188), read-out: AUC0-28d): 101 ± 11 µM·h | concentration at 21 d (beagle, 6 mg/kg, SC 6 mg/kg, 75 mg/mL solution (w/w %: 29.21 water, 62.55 PEG 300, 6.97 sodium salt of Formula (Ia), 1.68 poloxamer 188), read-out: C21d): 40 ± 24 nM | Cmax [2]: 69 ± 22 nM | AUC(0-t) (beagle, 6 mg/kg, SC 6 mg/kg, 300 mg/mL solution (w/w %: 21.97 water, 47.05 PEG 300, 25.21 Formula (Ia), 1.08 NaOH, 4.69 poloxamer 188), read-out: AUC0-56d): 55.4 ± 20.8 µM·h | concentration at 56 d [2]: 30.4 ± 7.2 nM | Cmax [3]: 312 ± 93 nM | Tmax [3]: 16.3 ± 4.04 days | concentration at 56 d [3]: 22.9 ± 5.6 nM | Cmax [4]: 133 ± 10 nM | Tmax [4]: 14 days | AUC(0-t) (beagle, 12 mg/kg, SC 12 mg/kg, 300 mg/mL solution (w/w %: 9.8 water, 65.0 PEG 300, 25.2 Formula (Ia)), read-out: AUC0-126d): 139 ± 8 µM·h | concentration at 84 d (beagle, 12 mg/kg, SC 12 mg/kg, 300 mg/mL solution (w/w %: 9.8 water, 65.0 PEG 300, 25.2 Formula (Ia)), read-out: C84d): 21.7 ± 6.5 nM | Cmax [5]: 267 ± 176 nM | Tmax [5]: 12.3 ± 9.62 days | AUC(0-t) (beagle, 12 mg/kg, SC 12 mg/kg, 300 mg/mL solution (w/w %: 23.2 water, 50.0 PEG 300, 25.7 Formula (Ia), 1.1 NaOH), read-out: AUC0-56d): 166 ± 110 µM·h | concentration at 56 d [5]: 29.6 ± 30.8 nM | AUC(0-t) (beagle, 12 mg/kg, SC 12 mg/kg, 400 mg/mL solution in 10% ethanol, 13% water, 77% PEG 200, read-out: AUC0-84d): 89.6 ± 10.1 µM·h
